Laboratory results from patent US20140088187A1, “ANDROGEN RECEPTOR INHIBITORS AND METHODS OF USE THEREOF” (BETH ISRAEL DEACONESS MEDICAL CENTER, priority 2010, published 2014).

Tests used:
AR WT = biological target: T1, AR WT (Homo sapiens, UniProt P10275); assay: Mifepristone-stimulated VP16-NCoRc recruitment reporter assay in COS7 cells, AR WT; format: cell-based
T1 construct: The AR WT construct expresses full-length human AR under cmv promoter control; expressed in transfected cells; host or cells: COS7
T1 sequence (P10275 1-920): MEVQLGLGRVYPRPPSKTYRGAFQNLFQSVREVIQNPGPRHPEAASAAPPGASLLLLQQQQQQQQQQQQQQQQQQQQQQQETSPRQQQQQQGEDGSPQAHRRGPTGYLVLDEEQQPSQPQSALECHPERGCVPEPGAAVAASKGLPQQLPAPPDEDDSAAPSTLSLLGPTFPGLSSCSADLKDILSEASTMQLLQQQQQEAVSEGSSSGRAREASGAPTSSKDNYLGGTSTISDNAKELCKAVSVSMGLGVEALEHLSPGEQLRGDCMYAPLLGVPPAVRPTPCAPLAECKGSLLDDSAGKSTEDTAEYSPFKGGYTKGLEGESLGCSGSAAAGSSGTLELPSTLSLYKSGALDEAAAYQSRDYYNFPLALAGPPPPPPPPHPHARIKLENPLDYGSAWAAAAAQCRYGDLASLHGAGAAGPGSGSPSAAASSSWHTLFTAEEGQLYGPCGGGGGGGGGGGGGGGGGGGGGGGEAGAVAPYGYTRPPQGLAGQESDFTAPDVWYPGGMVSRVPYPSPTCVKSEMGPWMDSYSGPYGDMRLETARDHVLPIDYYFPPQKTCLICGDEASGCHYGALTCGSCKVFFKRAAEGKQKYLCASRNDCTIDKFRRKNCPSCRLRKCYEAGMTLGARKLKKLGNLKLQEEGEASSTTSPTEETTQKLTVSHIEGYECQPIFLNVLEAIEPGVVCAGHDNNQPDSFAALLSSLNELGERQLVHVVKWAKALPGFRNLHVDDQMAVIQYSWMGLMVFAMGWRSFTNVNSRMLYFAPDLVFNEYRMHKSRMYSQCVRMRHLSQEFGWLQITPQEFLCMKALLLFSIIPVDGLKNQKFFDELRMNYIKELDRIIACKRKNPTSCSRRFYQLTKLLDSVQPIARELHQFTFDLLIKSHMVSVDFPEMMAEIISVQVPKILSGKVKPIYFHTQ
Text: (§1) The ERα antagonist fulvestrant (Faslodex) represents a novel class of estrogen receptor downregulators that appear to mediate ERα degradation by specifically repositioning helix 12. To assess the role of helix 12 in chemotype A-mediated AR degradation, we first determined if helix 12 is required for A89 binding. As this helix is required for AR agonist activity, we could not directly measure competitive antagonist activity on a truncated AR lacking helix 12.

[1] = biological target: T2, AR ΔH12 (M886X variant AR) (Homo sapiens, UniProt P10275); assay: Mifepristone-stimulated VP16-NCoRc recruitment reporter assay in COS7 cells, AR ΔH12; format: cell-based
T2 construct: expressed in transfected cells; host or cells: COS7
T2 sequence (P10275 1-886 limits assumed): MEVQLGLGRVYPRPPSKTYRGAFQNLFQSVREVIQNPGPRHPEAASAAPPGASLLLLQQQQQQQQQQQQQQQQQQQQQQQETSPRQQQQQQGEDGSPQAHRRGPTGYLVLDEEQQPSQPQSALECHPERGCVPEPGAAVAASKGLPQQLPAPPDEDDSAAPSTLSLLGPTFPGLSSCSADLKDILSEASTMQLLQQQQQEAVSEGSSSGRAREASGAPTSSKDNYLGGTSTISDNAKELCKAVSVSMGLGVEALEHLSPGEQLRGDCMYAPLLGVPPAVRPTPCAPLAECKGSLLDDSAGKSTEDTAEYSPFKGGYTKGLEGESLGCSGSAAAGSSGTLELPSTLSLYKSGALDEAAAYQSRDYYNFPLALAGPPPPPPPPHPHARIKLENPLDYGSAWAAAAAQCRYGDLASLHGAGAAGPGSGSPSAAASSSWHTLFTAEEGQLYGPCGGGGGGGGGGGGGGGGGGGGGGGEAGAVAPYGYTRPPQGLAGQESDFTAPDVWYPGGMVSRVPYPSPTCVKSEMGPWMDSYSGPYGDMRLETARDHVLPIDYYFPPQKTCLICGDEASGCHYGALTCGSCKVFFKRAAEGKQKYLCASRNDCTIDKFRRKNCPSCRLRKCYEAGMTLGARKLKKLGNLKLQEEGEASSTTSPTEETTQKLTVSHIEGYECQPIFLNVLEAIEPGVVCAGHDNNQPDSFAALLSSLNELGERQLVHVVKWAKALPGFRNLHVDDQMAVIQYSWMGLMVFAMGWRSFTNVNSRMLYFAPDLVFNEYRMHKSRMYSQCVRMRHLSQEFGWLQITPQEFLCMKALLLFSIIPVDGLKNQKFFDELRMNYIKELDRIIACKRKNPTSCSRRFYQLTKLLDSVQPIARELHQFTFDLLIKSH
Text: as §1

VCaP xenograft tumors = assay: Post-castration relapsed VCaP xenograft tumors (model of CRPC); format: in vivo
Description: FIG. 17. Compound A89 maintains activity in vivo and is efficacious in a CRPC xenograft model. (a) Morphological changes in seminal vesicles of intact adult male mice following treatment with DMSO vehicle, Bic (0.5 mg/day) or A89 (mg/day as indicated) for 7 days. (b) H&E stained cross-sections of prostate ductal epithelium from above mice treated with DMSO, Bic, or A89 (10 mg/day). (c) AR and Ki-67 staining in pre- and post-castration relapsed VCaP xenograft tumor sections following treatment with A89 (5 mg/day) or Bic (0.5 mg/day) for 7 days. (d) mRNA levels of AR and AR-target genes in post-castration relapsed VCaP xenograft tumors following treatment with A89 (5 mg/day) for 7 days. Error bars represent S.E.M.
To evaluate the activity of the chemotype A compounds in vivo we first treated adult male mice with compound A89 in a dose ranging experiment from 0.5 mg/day to 10 mg/day via intraperitoneal injection for 7 days. […] We next evaluated A89 in VCaP xenograft tumors that had relapsed following an initial response to castration, which is a model of CRPC.

[2] = Mif 100 nM, A89 50 μM, 24 hours

Compound: CCOc1cc(F)c(S(=O)(=O)NCc2ccc3c(c2)OCO3)cc1F [Compound A89, N-(1,3-benzodioxol-5-ylmethyl)-4-ethoxy-2,5-difluorobenzenesulfonamide]
- mifepristone-mediated VP16-NCoRc recruitment (AR WT; A89 50 μM with Mif 100 nM): suppressed
- VP16-NCoRc recruitment (interaction with AR) (AR WT; [2]): did not stimulate
- mifepristone-mediated VP16-NCoRc recruitment ([1]; A89 50 μM with Mif 100 nM): suppressed
- VP16-NCoRc recruitment (interaction with AR) [1, 2]: did not stimulate
- tumor cell proliferation (Ki-67 staining) (VCaP xenograft tumors; A89 5 mg/day for 7 days): decreased tumor cell proliferation
- nuclear AR expression / staining in tumor (VCaP xenograft tumors; A89 5 mg/day or Bic 0.5 mg/day for 7 days): substantially decreased
- expression of androgen regulated genes (TMPRSS2, ERG, PSA mRNA) (VCaP xenograft tumors; biopsies pre- and post treatment, A89 5 mg/day for 7 days): significant decrease
